Measured values as given in US9259002B2, “Herbicidal composition and method of use thereof” (Syngenta Crop Protection LLC, priority 2006, dated 2016).

Legend:
Assay type in all cases: in vivo
[1] = test system: white clover (Trifolium repens); assay: Glasshouse trial, post-emergence control of white clover
Protocol: A glasshouse trial was carried out. White clover seeds were sown into standard glasshouse potting mix (1:1 v/v Promix:Vero sand soil) contained in 10 cm square plastic pots. Treatments were replicated three times. […] When used, dithiopyr was applied at a rate of 70 g ai/ha or 140 g ai/ha. The adjuvant system was X-77 at 0.1% v/v in deionised water. 200 liters of herbicide/adjuvant system was used per hectare. General weed control was evaluated at 10 and 16 days after treatment (DAT). It is noted that all herbicides were applied at reduced field rates because herbicide effects are magnified in a glasshouse environment. Rates were chosen to give a 50 to 70% level of control with herbicides applied alone as this allows for detection of any synergistic effect when tank mixtures are used. […] The results were evaluated using the Colby formula. The expected result for (A+B) is (A+B)−(A×B/100) where A and B are the ‘observed’ results for A and B on their own. […] A glasshouse trial was carried out as described in Example 1, but using triclopyr (in the form of Turflon®) instead of dithiopyr. A glasshouse trial was carried out as described in Example 2, but using fluoroxypyr (in the form of Spotlight®) instead of triclopyr.

[2] = test system: Medicago lupulina (black medic); assay: Glasshouse trial, post-emergence control of black medic; settings: for Expected control (Colby), Plus Mesotrione at 100 g ai/ha: Colby formula; for Actual control, Plus Mesotrione at 100 g ai/ha: post-emergence
Protocol: A glasshouse trial was carried out. White clover seeds were sown into standard glasshouse potting mix (1:1 v/v Promix:Vero sand soil) contained in 10 cm square plastic pots. Treatments were replicated three times. Mesotrione (in the form Callisto® 480SE) was applied post-emergence to white clover (Trifolium repens) at either 50 g ai/ha or 100 g ai/ha with or without dithiopyr (in the form Dimension®). When used, dithiopyr was applied at a rate of 70 g ai/ha or 140 g ai/ha. The adjuvant system was X-77 at 0.1% v/v in deionised water. 200 liters of herbicide/adjuvant system was used per hectare. General weed control was evaluated at 10 and 16 days after treatment (DAT). It is noted that all herbicides were applied at reduced field rates because herbicide effects are magnified in a glasshouse environment. Rates were chosen to give a 50 to 70% level of control with herbicides applied alone as this allows for detection of any synergistic effect when tank mixtures are used. […] The results were evaluated using the Colby formula. The expected result for (A+B) is (A+B)−(A×B/100) where A and B are the ‘observed’ results for A and B on their own. […] A glasshouse trial was carried out as described in Example 1, but using triclopyr (in the form of Turflon®) instead of dithiopyr. A glasshouse trial was carried out as described in Example 2, but using Medicago lupulina (black medic) of white clover. A glasshouse trial was carried out as described in Example 4, but using fluoroxypyr instead of triclopyr.

[3] = test system: Eleusine indica (goosegrass); assay: Glasshouse trial, post-emergence control of goosegrass; settings: for Expected control (Colby), Plus Mesotrione at 200 g ai/ha: Colby formula; for Actual control, Plus Mesotrione at 200 g ai/ha: post-emergence
[4] = fluroxypyr 50 g ai/ha + mesotrione 100 g ai/ha
[5] = triclopyr 140 g ai/ha + mesotrione 100 g ai/ha
[6] = triclopyr 140 g ai/ha + mesotrione 200 g ai/ha
[7] = triclopyr 280 g ai/ha + mesotrione 200 g ai/ha

Compound: CSC(=O)c1c(C(F)F)nc(C(F)(F)F)c(C(=O)SC)c1CC(C)C [Dithiopyr, S,S′-dimethyl 2-difluoromethyl-4-isobutyl-6-trifluoromethylpyridine-=3,5-dicarbothioate]
- Actual control, Plus Mesotrione at 50 g ai/ha ([1]; dithiopyr 70 g ai/ha + mesotrione 50 g ai/ha tank mix, post-emergence, 10 DAT): 46.7
- Expected control (Colby), Plus Mesotrione at 50 g ai/ha ([1]; dithiopyr 70 g ai/ha + mesotrione 50 g ai/ha, 10 DAT, Colby formula): 37.4
- Actual control, Plus Mesotrione at 100 g ai/ha ([1]; dithiopyr 70 g ai/ha + mesotrione 100 g ai/ha tank mix, post-emergence, 10 DAT): 55.0
- Expected control (Colby), Plus Mesotrione at 100 g ai/ha ([1]; dithiopyr 70 g ai/ha + mesotrione 100 g ai/ha, 10 DAT, Colby formula): 52.6
- Actual control, Plus Mesotrione at 50 g ai/ha ([1]; dithiopyr 140 g ai/ha + mesotrione 50 g ai/ha tank mix, post-emergence, 10 DAT): 43.3
- Expected control (Colby), Plus Mesotrione at 50 g ai/ha ([1]; dithiopyr 140 g ai/ha + mesotrione 50 g ai/ha, 10 DAT, Colby formula): 44.2
- Actual control, Plus Mesotrione at 100 g ai/ha ([1]; dithiopyr 140 g ai/ha + mesotrione 100 g ai/ha tank mix, post-emergence, 10 DAT): 46.7
- Expected control (Colby), Plus Mesotrione at 100 g ai/ha ([1]; dithiopyr 140 g ai/ha + mesotrione 100 g ai/ha, 10 DAT, Colby formula): 57.8
- control of white clover on its own ([1]; dithiopyr alone, higher rate (140 g ai/ha), post-emergence): 18%
- control of white clover on its own ([1]; dithiopyr alone, lower rate (70 g ai/ha), post-emergence): 8%

Compound: Nc1c(Cl)c(F)nc(OCC(=O)O)c1Cl [Fluroxypyr, [(4-amino-3,5-dichloro-6-fluoro-2-pyridinyl)oxy]acetic acid]
- Expected control (Colby), Plus Mesotrione at 100 g ai/ha [2, 4]: 85
- Actual control, Plus Mesotrione at 100 g ai/ha [2, 4]: 90
- Expected control (Colby), Plus Mesotrione at 100 g ai/ha ([1]; fluroxypyr 50 g ai/ha + mesotrione 100 g ai/ha, Colby formula): 84
- Actual control, Plus Mesotrione at 100 g ai/ha ([1]; fluroxypyr 50 g ai/ha + mesotrione 100 g ai/ha, post-emergence): 91

Compound: O=C(O)COc1nc(Cl)c(Cl)cc1Cl [Triclopyr, [(3,5,6-trichloro-2-pyridyl)oxy]acetic acid]
- Expected control (Colby), Plus Mesotrione at 100 g ai/ha [2, 5]: 91
- Actual control, Plus Mesotrione at 100 g ai/ha [2, 5]: 97
- Expected control (Colby), Plus Mesotrione at 200 g ai/ha [3, 6]: 32
- Actual control, Plus Mesotrione at 200 g ai/ha [3, 6]: 42
- Expected control (Colby), Plus Mesotrione at 200 g ai/ha [3, 7]: 35
- Actual control, Plus Mesotrione at 200 g ai/ha [3, 7]: 50
- Expected control (Colby), Plus Mesotrione at 100 g ai/ha ([1]; triclopyr 140 g ai/ha + mesotrione 100 g ai/ha, Colby formula): 84
- Actual control, Plus Mesotrione at 100 g ai/ha ([1]; triclopyr 140 g ai/ha + mesotrione 100 g ai/ha, post-emergence): 99
- Expected control (Colby), Plus Mesotrione at 200 g ai/ha ([1]; triclopyr 140 g ai/ha + mesotrione 200 g ai/ha, Colby formula): 90
- Actual control, Plus Mesotrione at 200 g ai/ha ([1]; triclopyr 140 g ai/ha + mesotrione 200 g ai/ha, post-emergence): 98

Compound: CS(=O)(=O)c1ccc(C(=O)C2C(=O)CCCC2=O)c([N+](=O)[O-])c1 [mesotrione, 2-(2′-nitro-4′-methylsulphonylbenzoyl)-1,3-cyclohexanedione]
- control of white clover on its own ([1]; mesotrione alone, higher rate (100 g ai/ha), post-emergence): 48%
- control of white clover on its own ([1]; mesotrione alone, lower rate (50 g ai/ha), post-emergence): 32%
